Molecules are shown by their SMILES.

In the first experiment the target is T1, Bromodomain-containing protein 4 (Homo sapiens, UniProt O60885). Put plainly: Inhibition of BRD4 (unknown origin) by biotinylated-JQ1 based AlphaScreen BRD binding assay.
Details: not given
For `Cc1noc(C)c1-c1ccc(C=O)cc1`, the IC50 worked out at 1.7 µM.

`CCOC(=O)C(C)N(Cc1ccc(-c2c(C)noc2C)cc1)C(=O)c1ccc(OC)cc1` (centres undefined): the IC50 is 16.3 µM.

Consider `COc1ccc(-c2cc(-c3ccc(-c4c(C)noc4C)cc3)nc(-c3ccccc3)n2)cc1`, for which the IC50 is 69.9 µM.

Molecule `Cc1ccc2nc(-c3ccc(-c4c(C)noc4C)cc3)c(NCc3ccccc3)n2c1` yielded an IC50 above 100 µM.

`COc1ccc(Nc2c(-c3ccc(-c4c(C)noc4C)cc3)nn3ccncc23)cc1` came in with an IC50 of 7.86 µM.

Turning to `Cc1noc(C)c1-c1ccc(-c2nc3cnccn3c2NC(C)(C)C)cc1`, the IC50 was determined as 0.637 µM.

Another experiment addresses T1, Bromodomain-containing protein 4. Put plainly: Binding affinity to BRD4 (unknown origin) by isothermal titration […].
Details: not given
Molecule `Cc1noc(C)c1-c1ccc(-c2nc3cnccn3c2NC(C)(C)C)cc1` came in with a Kd of 0.55 µM.

Test system in the next experiment: not listed separately
Put plainly: Cytotoxicity against BRD4-NUT-expressing human NMC-797 cells assessed as reduction in cell viability after 3 days by ATPlite assay. It counts as functional, cell-based. The following applies: NMC-797, 72 h.
Regarding `CCOC(=O)[C@]1(C)NC(c2ccc(-c3c(C)noc3C)cc2)C2C(=O)N(CC)C(=O)C21` (some centres undefined), the EC50 came to 9.42 µM.

In the case of `CCCCN1C(=O)c2ccccc2NC(=O)C1c1ccc(-c2c(C)noc2C)c(OC)c1` (centres undefined), the EC50 was determined as 9.91 µM.

Take `Cc1noc(C)c1-c1cccc(C2Nc3ccccc3NC3=C2C(=O)OC3)c1` (centres undefined): the EC50 is above 100 µM.

With `COc1ccc(-c2cc(-c3ccc(-c4c(C)noc4C)cc3)nc(-c3ccccc3)n2)cc1`, the EC50 is above 100 µM.

For the molecule `Cc1noc(C)c1-c1ccc(-c2nc3ccc(Cl)cn3c2NCc2ccccc2)cc1`, the EC50 was 18.4 µM.

As for `Cc1noc(C)c1-c1ccc(-c2nc3cnccn3c2NCc2ccccc2)cc1`, the EC50 came out at 49.1 µM.

With `Cc1noc(C)c1-c1ccc(-c2nc3ccccn3c2NC2CCCCC2)cc1`, the EC50 came to 5.07 µM.

With `COc1ccc(Nc2c(-c3ccc(-c4c(C)noc4C)cc3)nc3ccccn23)cc1`, the EC50 is 7.36 µM.

On to `COc1ccc(Nc2c(-c3ccc(-c4c(C)noc4C)cc3)nc3ccc(Cl)cn23)cc1`, for which the EC50 was 20.7 µM.

On to `COc1ccc(Nc2c(-c3ccc(-c4c(C)noc4C)cc3)nc3cc(OC)ncn23)cc1`, for which the EC50 was found to be 11.8 µM.

Turning to `Cc1noc(C)c1-c1ccc(-c2nc3ccccn3c2NC(C)(C)C)cc1`, the EC50 was 2.04 µM.

As for `Cc1noc(C)c1-c1ccc(-c2nc3cnccn3c2NC(C)(C)C)cc1`, the EC50 was found to be 0.724 µM.

For the molecule `Cc1noc(C)c1-c1ccc(-c2nc3ccc(Cl)cn3c2NC(C)(C)C)cc1`, the EC50 worked out at 2.19 µM.

For the molecule `Cc1noc(C)c1-c1ccc(-c2nc3cnccn3c2NC(C)C)cc1`, the EC50 was 0.494 µM.

Take `Cc1noc(C)c1-c1ccc(-c2nc3cnccn3c2NC(C)(C)C)cn1`: the EC50 is above 100 µM.

On to `Cc1noc(C)c1-c1ccc(-c2nc3cnccn3c2NC(C)(C)C)nc1`, for which the 50% effective concentration (EC50) amounted to 8.29 µM.

For `Cc1noc(C)c1-c1ccc(-c2nc3cnccn3c2NC(C)(C)C)cc1F`, the EC50 amounted to 12.8 µM.

Source of the values: ChEMBL document CHEMBL3351605, “Biased multicomponent reactions to develop novel bromodomain inhibitors” (J Med Chem, 2014).
